{"source": "patent US20050034187A1", "about": "“Modified tet-inducible system for regulation of gene expression in plants” (priority 2000, published 2005)", "key": {"[1]": {"tested_on": "wild type tet Receptor and TripleX-driven GUS gene (pAC489/pAC499 double transformants)", "assay": "Seed germination test: induction of GUS gene in seedlings", "assay_type": "in vivo, tobacco", "conditions": "concentration curve, FIG. 19"}, "[2]": {"tested_on": "tet-inducible luciferase cassettes with (OCS)3MAS/nTR", "assay": "Leaf disk induction assay, luciferase", "assay_type": "cell-based, tobacco", "conditions": "for maximum magnitude of induction (luciferase): FIGS. 14 and 15; for highest induction in some lines (luciferase) / average induction of the reporter (luciferase): doxycycline 5 mg/l", "method": "FIG. 9—Doxycycline-Mediated Induction of Expression of Luciferase from (OCS)3triplexmin Promoter in Plants is Stronger than TripleX. This experiment was performed in order to test the performance of OCS elements-modified TripleX promoter on the whole plant level. Transgenic tobacco plants carrying (OCS)3MAS/nTR, NPTII, and either of (OCS)3TripleXmin/LUC or TripleX/LUC cassettes were tested in leaf disk induction assays: 5-10 mm leaf disks were excised from plants and put into six- or twelve-well plates with liquid MS medium and with or without Doxy 5 mg/l at 5 mg/l. Luciferase assays were performed with the tissues 5 days later. Each bar represents one sample; numbers above the bars represent magnitude of induction.\nFIG. 10—Doxycycline-Mediated Induction of Expression of Luci erase from (OCS)3triplexmin Promoter in Plants is Stronger than TripleX. […] 5-10 mm leaf disks and pieces of roots were excised from plants and put into six- or twelve-well plates with liquid MS medium and with or without Doxy 5 mg/l at 5 mg/l. Luciferase assays were performed with the tissues 5 days later. Each bar represents an average of three samples; numbers above the bars represent magnitude of induction.\nFIG. 13—Doxycycline-Mediated Induction of Expression of Luciferase in Inducible Cassettes With or Without One or More MAR Elements. This experiment was performed in order to test the effect of placing inducible luciferase gene between one or more MAR elements. Tobacco plants carrying TripleX/LUC cassette placed between one or more MAR elements, (OCS)3MAS/nTR and NPTII genes (pACAG073 and pACAG081) as well as the reference cassette without one or more MAR elements (pACAG085) were used as donors of 5-10 mm leaf disks which were cultivated in six- or twelve-well plates with liquid MS medium with or without doxycycline 5 mg/l for five days. Samples were assayed for luciferase activity. Each bar represents one sample; numbers above the bars represent magnitude of induction.\nFIG. 14—Doxycycline-Mediated Induction of Luciferase in Leaves Carrying Inducible Cassettes With or Without One or More MAR Elements. This experiment was performed in order to test the effect of placing inducible luciferase gene between one or more MAR elements. […] 5-10 mm leaf disks and pieces of roots were excised from plants and put into six- or twelve-well plates with liquid MS medium and with or without Doxy 5 mg/l at 5 mg/l. Luciferase assays were performed with the tissues 5 days later. Each bar represents an average of three samples; numbers above the bars represent magnitude of induction.\nEvaluation of tet inducible system in plant tissues. 5-10 mm leaf disks were excised from plants and put into six- or twelve-well plates with liquid MS medium and with or without a tet analog at 5 mg/l. When transgenic plants carried cassettes for induction of herbicide resistance, the medium was supplemented with PURSUIT® at concentration of 1 μM or higher. These plates were cultivated in dark on shaker at 90 rpm for 5 days (three weeks for analysis of induction of herbicide resistance) and then used in assays or evaluated visually. Another test was designed for evaluation of inducible herbicide resistance. In this test leaf disks were placed on MS agar supplemented with. 1 mg/l of BAP and PURSUIT® at concentration of 1 μM or higher either alone or with a tet analog at 5 mg/l. Three weeks later the induction of regeneration from these disks was evaluated."}}, "data": [{"smiles": "C[C@H]1c2cccc(O)c2C(=O)C2=C(O)[C@]3(O)C(=O)C(C(N)=O)=C(O)[C@@H](N(C)C)[C@@H]3[C@@H](O)[C@@H]21", "note": "[doxycycline]", "values": [{"measurement": "threshold concentration at which noticeable induction occurred", "setting": "[1]", "result": 0.1, "unit": "mg/L"}, {"measurement": "maximum magnitude of induction (luciferase)", "setting": "[2]; cassettes carrying at least one MAR element, Doxy 5 mg/l", "result": 50, "unit": "fold"}, {"measurement": "maximum magnitude of induction (luciferase)", "setting": "[2]; cassettes without MAR element, Doxy 5 mg/l", "result": 80, "unit": "fold"}, {"measurement": "maximum induction (luciferase)", "setting": "[2]; pACAG085 (TripleX/LUC), Doxy 5 mg/l, leaf disks, FIG. 10", "result": 83, "unit": "fold"}, {"measurement": "highest induction in some lines (luciferase)", "setting": "[2]; pACAG113 and pACAG085 plants, FIG. 9", "result": 100, "unit": "fold"}, {"measurement": "average induction of the reporter (luciferase)", "setting": "[2]; pACAG113 and pACAG085 plants, leaf disks, FIG. 9", "result": "30 to 40", "unit": "fold"}, {"measurement": "magnitude of induction for several lines (luciferase)", "setting": "[2]; pACAG113 cassette ((OCS)3TripleXmin/LUC), Doxy 5 mg/l, leaf disks, FIG. 10", "result": "higher than 100 fold"}, {"measurement": "average induction of the reporter (luciferase)", "setting": "[2]; the other three cassettes with or without MAR, FIG. 13", "result": "30 to 40", "unit": "fold"}, {"measurement": "highest induction in some lines (luciferase)", "setting": "[2]; the other three cassettes, FIG. 13", "result": 100, "unit": "fold"}]}]}
